Measured values published in PubChem BioAssay AID1918946 (Molecular Pharmacology Branch, DTP, NCI, 2023).
Several values for one entry are separate records, joined by “and”; a condition that tells them apart may be missing. Equal values may be shown once.

Test system: 885512-296-R-J2-PDC complex spheroid viability
Assay: Anticancer human tumor 885512-296-R-J2-PDC patient-derived breast carcinoma cell line growth inhibition
Conditions: for viability, T/C: stronger effect = lower value
In short: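 Drug combinations with the LSD1 inhibitor iadademstat tested on tumor cells co-cultured as spheroids with endothelial cells and mesenchymal stem cells. Concentrations descended in half-log increments from clinical Cmax or 10 microM.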

[1] = curve of first compound, second compound 0.1 µM
[2] = curve of first compound, second compound 0.316 µM
[3] = curve of first compound, second compound 1 µM
[4] = curve of first compound, second compound 3.16 µM
[5] = curve of first compound, second compound 10 µM
[6] = second compound 0.1 µM, first compound 0.0316 µM
[7] = second compound 0.1 µM, first compound 0.1 µM
[8] = second compound 0.1 µM, first compound 0.316 µM
[9] = second compound 0.1 µM, first compound 1 µM
[10] = second compound 0.1 µM, first compound 3.16 µM
[11] = second compound 0.1 µM, first compound 10 µM
[12] = second compound 0.316 µM, first compound 0.0316 µM
[13] = second compound 0.316 µM, first compound 0.1 µM
[14] = second compound 0.316 µM, first compound 0.316 µM
[15] = second compound 0.316 µM, first compound 1 µM
[16] = second compound 0.316 µM, first compound 3.16 µM
[17] = second compound 0.316 µM, first compound 10 µM
[18] = second compound 1 µM, first compound 0.0316 µM
[19] = second compound 1 µM, first compound 0.1 µM
[20] = second compound 1 µM, first compound 0.316 µM
[21] = second compound 1 µM, first compound 1 µM
[22] = second compound 1 µM, first compound 3.16 µM
[23] = second compound 1 µM, first compound 10 µM
[24] = second compound 3.16 µM, first compound 0.0316 µM
[25] = second compound 3.16 µM, first compound 0.1 µM
[26] = second compound 3.16 µM, first compound 0.316 µM
[27] = second compound 3.16 µM, first compound 1 µM
[28] = second compound 3.16 µM, first compound 3.16 µM
[29] = second compound 3.16 µM, first compound 10 µM
[30] = second compound 10 µM, first compound 0.0316 µM
[31] = second compound 10 µM, first compound 0.1 µM
[32] = second compound 10 µM, first compound 0.316 µM
[33] = second compound 10 µM, first compound 1 µM
[34] = second compound 10 µM, first compound 3.16 µM
[35] = second compound 10 µM, first compound 10 µM
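Note: spheroids exposed to agents for 7 days before viability read.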

Molecule `Nc1ccccc1NC(=O)c1ccc(CNC(=O)OCc2cccnc2)cc1` + NC1CCC(NC2CC2c2ccccc2)CC1 has an IC50 [1] of 106 nM, an IC50 [2] of 108 nM and an IC50 [3] of 123 nM. For the same molecule, the IC50 [4] was 124 nM, the IC50 [5] was 90.7 nM and the viability, T/C (second compound 0.1 µM, first compound 0.00949 µM) was 123%. For the same molecule, the viability, T/C (second compound 0.1 µM, first compound 0.03 µM) was 111%, the viability, T/C (second compound 0.1 µM, first compound 0.0949 µM) was 50.6% and the viability, T/C (second compound 0.1 µM, first compound 0.3 µM) was 25.3%. It also gave a viability, T/C (second compound 0.1 µM, first compound 0.949 µM) of 16.7%, a viability, T/C (second compound 0.1 µM, first compound 3 µM) of 7.75% and a viability, T/C (second compound 0.316 µM, first compound 0.00949 µM) of 115%. It also gave a viability, T/C (second compound 0.316 µM, first compound 0.03 µM) of 110%, a viability, T/C (second compound 0.316 µM, first compound 0.0949 µM) of 51.7% and a viability, T/C (second compound 0.316 µM, first compound 0.3 µM) of 24.6%. The viability, T/C (second compound 0.316 µM, first compound 0.949 µM) was 15.5%, the viability, T/C (second compound 0.316 µM, first compound 3 µM) was 8.27% and the viability, T/C (second compound 1 µM, first compound 0.00949 µM) was 116%. The viability, T/C (second compound 1 µM, first compound 0.03 µM) was 106%, the viability, T/C (second compound 1 µM, first compound 0.0949 µM) was 52.9% and the viability, T/C (second compound 1 µM, first compound 0.3 µM) was 28.6%. The viability, T/C (second compound 1 µM, first compound 0.949 µM) was 11.4%, the viability, T/C (second compound 1 µM, first compound 3 µM) was 6.94% and the viability, T/C (second compound 3.16 µM, first compound 0.00949 µM) was 123%. The viability, T/C (second compound 3.16 µM, first compound 0.03 µM) was 105%, the viability, T/C (second compound 3.16 µM, first compound 0.0949 µM) was 54.1% and the viability, T/C (second compound 3.16 µM, first compound 0.3 µM) was 26.6%. The viability, T/C (second compound 3.16 µM, first compound 0.949 µM) was 12.5%, the viability, T/C (second compound 3.16 µM, first compound 3 µM) was 4.09% and the viability, T/C (second compound 10 µM, first compound 0.00949 µM) was 107%. It also gave a viability, T/C (second compound 10 µM, first compound 0.03 µM) of 89.8%, a viability, T/C (second compound 10 µM, first compound 0.0949 µM) of 46.5% and a viability, T/C (second compound 10 µM, first compound 0.3 µM) of 20.5%. It also gave a viability, T/C (second compound 10 µM, first compound 0.949 µM) of 9.82% and a viability, T/C (second compound 10 µM, first compound 3 µM) of 4.99%.
`CC1COCCN1c1cc(C2(S(C)(=N)=O)CC2)nc(-c2ccnc3[nH]ccc23)n1` (stereo not given) + NC1CC1c1ccc(-c2cccc(O)c2)cc1 was tested, and the IC50 [1] was 501 nM, the IC50 [2] was 466 nM and the IC50 [3] was 338 nM. For the same molecule, the IC50 [4] was 412 nM, the IC50 [5] was 216 nM and the viability, T/C [6] was 110%. It also gave a viability, T/C [7] of 116%, a viability, T/C [8] of 76.1% and a viability, T/C [9] of 11.1%. The viability, T/C [10] was 3.64%, the viability, T/C [11] was 2.7% and the viability, T/C [12] was 139%. The viability, T/C [13] was 112%, the viability, T/C [14] was 72.3% and the viability, T/C [15] was 10.7%. For the same molecule, the viability, T/C [16] was 3.33%, the viability, T/C [17] was 2.63% and the viability, T/C [18] was 118%. It also gave a viability, T/C [19] of 113%, a viability, T/C [20] of 52.3% and a viability, T/C [21] of 8.24%. It also gave a viability, T/C [22] of 3.25%, a viability, T/C [23] of 2.72% and a viability, T/C [24] of 114%. It also gave a viability, T/C [25] of 101%, a viability, T/C [26] of 63.1% and a viability, T/C [27] of 9.16%. It also gave a viability, T/C [28] of 3.38%, a viability, T/C [29] of 2.43% and a viability, T/C [30] of 79.9%. The viability, T/C [31] was 76.5%, the viability, T/C [32] was 37% and the viability, T/C [33] was 8.1%. It also gave a viability, T/C [34] of 3.13% and a viability, T/C [35] of 2.67%.
With `Cn1ncnc1C1c2n[nH]c(=O)c3cc(F)cc(c23)NC1c1ccc(F)cc1` (stereo not given) + NC1CCC(NC2CC2c2ccccc2)CC1 the IC50 [1] was 16 nM, the IC50 [2] was 25 nM and the IC50 [3] was 27.6 nM. For the same molecule, the IC50 [4] was 27.3 nM, the IC50 [5] was 14.2 nM and the viability, T/C (second compound 0.1 µM, first compound 0.000316 µM) was 140%. The viability, T/C (second compound 0.1 µM, first compound 0.001 µM) was 105%, the viability, T/C (second compound 0.1 µM, first compound 0.00316 µM) was 77.6% and the viability, T/C (second compound 0.1 µM, first compound 0.01 µM) was 67.2%. It also gave a viability, T/C [6] of 37.7%, a viability, T/C [7] of 10.2% and a viability, T/C (second compound 0.316 µM, first compound 0.000316 µM) of 122%. The viability, T/C (second compound 0.316 µM, first compound 0.001 µM) was 113%, the viability, T/C (second compound 0.316 µM, first compound 0.00316 µM) was 81.6% and the viability, T/C (second compound 0.316 µM, first compound 0.01 µM) was 79%. The viability, T/C [12] was 44%, the viability, T/C [13] was 13.3% and the viability, T/C (second compound 1 µM, first compound 0.000316 µM) was 108%. For the same molecule, the viability, T/C (second compound 1 µM, first compound 0.001 µM) was 105%, the viability, T/C (second compound 1 µM, first compound 0.00316 µM) was 89.6% and the viability, T/C (second compound 1 µM, first compound 0.01 µM) was 76.7%. The viability, T/C [18] was 44.6%, the viability, T/C [19] was 28.5% and the viability, T/C (second compound 3.16 µM, first compound 0.000316 µM) was 106%. The viability, T/C (second compound 3.16 µM, first compound 0.001 µM) was 104%, the viability, T/C (second compound 3.16 µM, first compound 0.00316 µM) was 86.1% and the viability, T/C (second compound 3.16 µM, first compound 0.01 µM) was 75.2%. The viability, T/C [24] was 44.5%, the viability, T/C [25] was 28.6% and the viability, T/C (second compound 10 µM, first compound 0.000316 µM) was 92%. It also gave a viability, T/C (second compound 10 µM, first compound 0.001 µM) of 85%, a viability, T/C (second compound 10 µM, first compound 0.00316 µM) of 72% and a viability, T/C (second compound 10 µM, first compound 0.01 µM) of 56.8%. The viability, T/C [30] was 36% and the viability, T/C [31] was 18.6%.
In the case of `NC1CCC(NC2CC2c2ccccc2)CC1` (stereo not given), the viability, T/C (compound 0.316 µM) is reported as 121% (2×) and 120% and the IC50 (compound alone, run of 01/24/2022) is reported as greater than 10000 nM.
With `CC(C)c1c(-c2ccccc2)nc2c(C#N)c[nH]n2c1=O` + NC1CCC(NC2CC2c2ccccc2)CC1 the IC50 [1] was greater than 10000 nM, the IC50 [2] was greater than 10000 nM and the IC50 [3] was greater than 10000 nM. It also gave an IC50 [4] greater than 10000 nM, an IC50 [5] greater than 10000 nM and a viability, T/C [6] of 121%. It also gave a viability, T/C [7] of 123%, a viability, T/C [8] of 137% and a viability, T/C [9] of 128%. For the same molecule, the viability, T/C [10] was 116%, the viability, T/C [11] was 119% and the viability, T/C [12] was 133%. It also gave a viability, T/C [13] of 126%, a viability, T/C [14] of 137% and a viability, T/C [15] of 131%. It also gave a viability, T/C [16] of 118%, a viability, T/C [17] of 113% and a viability, T/C [18] of 135%. The viability, T/C [19] was 114%, the viability, T/C [20] was 129% and the viability, T/C [21] was 123%. For the same molecule, the viability, T/C [22] was 148%, the viability, T/C [23] was 110% and the viability, T/C [24] was 111%. It also gave a viability, T/C [25] of 122%, a viability, T/C [26] of 120% and a viability, T/C [27] of 145%. It also gave a viability, T/C [28] of 115%, a viability, T/C [29] of 118% and a viability, T/C [30] of 99.3%. For the same molecule, the viability, T/C [31] was 85.5%, the viability, T/C [32] was 97.2% and the viability, T/C [33] was 109%. It also gave a viability, T/C [34] of 104% and a viability, T/C [35] of 114%.
`CC1COCCN1c1cc(-c2ccnn2C)c2ccnc(-c3ccn[nH]3)c2n1` (stereo not given) was tested, and the viability, T/C (compound 0.01 µM) was 6.26% and 3.04%, the viability, T/C (compound 0.0316 µM) was 2.66% and 1.79% and the viability, T/C (compound 0.1 µM) was 2.1% and 2.15%. For the same molecule, the viability, T/C (compound 0.316 µM) was 4.57% and 2.49%, the viability, T/C (compound 1 µM) was 11.1% and 3.37% and the IC50 (curve of compound) was less than 3.16 nM.
With `COc1ccc([C@@H](O)c2cc(-c3ncnc4cc(N5CCOCC5)ccc34)c(F)cc2Cl)nn1` the viability, T/C (compound 0.0316 µM) was 83.8% and 95.7%, the viability, T/C (compound 0.1 µM) was 96.8% and 82.8% and the viability, T/C (compound 0.316 µM) was 81.9% and 61.3%. For the same molecule, the viability, T/C (compound 1 µM) was 52.8% and 50.3%, the viability, T/C (compound 3.16 µM) was 16.6% and 37.4% and the viability, T/C (compound 10 µM) was 10.3% and 9.6%. For the same molecule, the IC50 (curve of compound) was 1080 nM and 980 nM.
